The subject of one assay is AMPK. The experiment in a line: AMPK activity in a cell model: hepatocytes isolated from rats. In kind it is cell-based, rat. Conditions: 500 μM, after 30 minutes, SAMS peptide phosphorylation with [γ-32P]-ATP. On the procedure:
AMPK Activity in a Cell Model: Hepatocytes Isolated from Rats
The hepatocytes are isolated according to the technique of Berry and Friend [J. Cell Biol, 43, 506–520 (1969)]. The AMPK activity was measured according to the method described by Davies el al. [Eur. J. Biochem., 186, 123–128 (1989)]. The latter involves phosphorylation starting from [γ-^32P]-ATP of a peptide substrate (SAMS), based on the sequence surrounding the site phosphorylated by the AMPK of the ACC. The reaction for measuring the AMPK activity ends with the deposition of an aliquot of the reaction medium on a phosphocellulose paper (Whatman P81), on which the SAMS peptide is fixed and the radioactivity of which is measured after washing.
By way of example, the compound of Example 4 activates AMPK, after 30 minutes at a concentration of 500 μM, by 312% (compared with the base value), whereas the same concentration of AICA riboside, used as reference, under the same conditions, activates it by 178%.

Another assay has as its system obese ob/ob mouse. The experiment in a line: Hypolipaemic activity in the obese ob/ob mouse. In kind it is in vivo. How it is done: The products of the invention were tested in vivo in the obese ob/ob mouse, used as a model of obesity-associated insulin resistance.

Regarding `NC(=O)c1ncn([C@@H]2O[C@H](CO)[C@@H](O)[C@H]2O)c1N` [AICA riboside], in the assay with AMPK, the “AMPK activation (compared with the base value)” value stood at 178%.

`CN(C)C(=N)N=C(N)N` [metformin]: in the assay with obese ob/ob mouse (250 mg/kg per os), the reduction of triglycerides result is “the same reduction is obtained”.

Regarding `Nc1nc2cccnc2n1C1CCCCCC1` [Example 4, 3-Cycloheptyl-3H-imidazo[4,5-b]pyridine-2-amine], in the assay with AMPK, the “AMPK activation (compared with the base value)” value came out at 312%. In the assay with obese ob/ob mouse (125 mg/kg per os), the reduction of triglycerides entry is given as “significantly reduces the triglycerides”.

The record behind these values is patent US7098220B2, “Imidazopyridine derivatives, preparation method and pharmaceutical compositions containing same” (Les Laboratoires Servier, priority 2002, dated 2006).
